Source: patent US10759797B2, “Pharmaceutically acceptable salt of EGFR inhibitor, crystal form thereof, preparation method therefor and application thereof” (Wuxi Shuangliang Biotechnology Co., Ltd., priority 2017, dated 2020)
Converted amounts (≈) assume the structure as drawn. Where a name gives a salt, the structure may show the parent alone.

How the values were obtained:
Type in all cases: physicochemical
[1] = Hygroscopicity study of crystal forms (Chinese Pharmacopoeia 2015, part 4, appendix 9103); details: for Hygroscopicity as compared with that of the EGFR inhibitor present in a free base form: 25° C./RH 80%; for Weight gain over 6 hours (%) / Weight gain over 24 hours (%) / Hygroscopicity: 25° C.±1° C., relative humidity 80%±2%; for Hygroscopicity: Pharmacopoeia class
Method: Hygroscopicity comparison study was carried out for various pharmaceutically acceptable salts of EGFR inhibitor present in the form of crystal in Examples 1 to 3 and 5 to 6, the amorphous EGFR inhibitor phosphate salt in Example 4, and the EGFR inhibitor present in a free base form. Tests were conducted according to the method in the Pharmacopoeia of the People's Republic of China, 2015 edition, part 4, appendix 9103 (temperature: 25° C.±1° C., relative humidity: 80%±2%), and the results were as shown in Table 6.
With regard to the description of hygroscopic properties and definition of hygroscopic weight gain, refer to the Pharmacopoeia of the People's Republic of China, 2015 edition, part 4, appendix 9103, experimental guideline of drug hygroscopicity, herein descried by way of example as follows.
Deliquescence: absorb enough water to form a liquid.
Very hygroscopic: hygroscopic weight gain […] 15%.
Hygroscopic: hygroscopic weight gain less than 15% but not less than 2%.
Non- or almost non-hygroscopic: hygroscopic weight gain less than 0.2%.

[2] = One month accelerated stability study at 40° C./75% RH (shape, purity, XRPD); details: for XRPD pattern (0 month versus 1 month) / Appearance, 1 month / Purity (%), 1 month: after 1 month at 40° C./75% RH; for Appearance, 0 month / Purity (%), 0 month: start of study (0 month)
Method: The six pharmaceutically acceptable salts of EGFR inhibitor in Examples 1 to 6 were placed in a condition of 40° C./75% RH, and a one month accelerated stability study was carried out. Samples were taken at the end of 0 and 1 month respectively, and emphasis was placed upon the shape, purity and crystal form stability (XRPD pattern) of the samples.
Stable refers to no occurrence of degradation and no detection of transformation to other crystal forms by analytical means such as chromatography and XRPD.

[3] = Solubility study in artificial gastric fluid (saturated solutions, HPLC linear equation; Pharmacopoeia and BCS classification); details: for Pharmacopoeia of the People's Republic of China Solubility level / Solubility in artificial gastric fluid, 1 h / Solubility in artificial gastric fluid, 4 h / Solubility in artificial gastric fluid, 24 h / BCS level (Do): artificial gastric fluid; for Solubility in artificial gastric fluid compared with water: artificial gastric fluid versus water; for Solubility in artificial gastric fluid, 1 h / Solubility in artificial gastric fluid, 4 h / Solubility in artificial gastric fluid, 24 h: saturated solution; for Solubility in artificial gastric fluid, 1 h: standing 1 hour; for Solubility in artificial gastric fluid, 4 h: standing 4 hours; for Solubility in artificial gastric fluid, 24 h: standing 24 hours; for BCS level (Do): Do=(Mo/Vo)/Cs, Mo 80 mg, Vo about 250 ml, Do≤1 solubility high, Do>1 low; for Degradation in the solubility study: water and artificial gastric fluid, up to 24 hours
Text: (§1) Various pharmaceutically acceptable salts of EGFR inhibitor present in form of crystal in Examples 1 to 3 and 5 to 6 were classified with reference to the relevant requirements of the Pharmacopoeia of the People's Republic of China and the Bio-pharmaceutics Classification System (BCS).
(§2) (a) Relevant Requirements of Solubility in the Pharmacopoeia of the People's Republic of China, 2015 Edition, General Notices:
(§3) (b) Relevant Requirements of Solubility in BCS: Do=(Mo/Vo)/Cs;
(§4) wherein Do: dose index; Mo: highest single dose of the drug (with reference to the relevant dose of osimertinib, tentatively set to 80 mg); Vo: the volume of body fluid required for dissolving the drug (about 250 ml); Cs: saturated solubility of the drug;
(§5) if Do≤1, solubility is high; and if Do>1, solubility is low.
(§6) Using an EGFR inhibitor free base as a control, linear regression was carried out by plotting peak area versus concentration, and the corresponding linear equation was obtained in the range of 0.025 to 1.5 mg/ml: A=19775.0411c+2.4256, r=1.0000.
Artificial gastric fluid was used as solvent. An appropriate amount of the EGFR inhibitor mesylate salt (crystal form A), p-toluenesulfonate salt (crystal form B), phosphate salt (crystal form C), phosphate salt (amorphous), hydrochloride salt (crystal form C), and citrate salt (crystal form E) prepared in Examples 1 to 6 was weighed, and prepared into saturated solutions. Samples were taken after standing for 1 hour, 4 hours, and 24 hours, respectively, and the concentration of each sample in saturation state was calculated according to the linear equation.

[4] = Solubility study in water (saturated solutions, HPLC linear equation; Pharmacopoeia and BCS classification); details: for BCS level (Do): Do=(Mo/Vo)/Cs, Mo 80 mg, Vo about 250 ml, Do≤1 solubility high, Do>1 low; for Solubility in water, 1 h / Solubility in water, 4 h / Solubility in water, 24 h: saturated solution; for Solubility in water, 1 h: standing 1 hour; for Solubility in water, 4 h: standing 4 hours; for Solubility in water, 24 h: standing 24 hours
Text: as §1, §2, §3, §4, §5, §6
Water was used as solvent. An appropriate amount of the EGFR inhibitor mesylate salt, p-toluenesulfonate salt, phosphate salt, hydrochloride salt and citrate salt prepared in Examples 1 to 3 and 5 to 6 was weighed, and prepared into saturated solutions. Samples were taken after standing for 1 hour, 4 hours, and 24 hours, respectively, and the concentration of each sample in saturation state was calculated according to the linear equation.

[5] = as above; details: in water and artificial gastric fluid
[6] = listed as p-toluenesulfonate salt (crystal form B)
[7] = listed as hydrochloride salt (crystal form D)

| SMILES | Weight gain over 6 hours (%) [1] [%] | Weight gain over 24 hours (%) [1] [%] | XRPD pattern (0 month versus 1 month) [2] | Pharmacopoeia of the People's Republic of China Solubility level [3] | Solubility in artificial gastric fluid compared with water [3] | Solubility in artificial gastric fluid, 1 h [3] [mg/mL] | Solubility in artificial gastric fluid, 4 h [3] [mg/mL] | Solubility in artificial gastric fluid, 24 h [3] [mg/mL] | BCS level (Do) [3] | Degradation in the solubility study [3] | Pharmacopoeia of the People's Republic of China Solubility level [4] | BCS level (Do) [4] | Solubility in water, 1 h [4] [mg/mL] | Solubility in water, 4 h [4] [mg/mL] | Solubility in water, 24 h [4] [mg/mL] | Hygroscopicity [1] | Appearance, 1 month [2] | Purity (%), 1 month [2] [%] | Appearance, 0 month [2] | Purity (%), 0 month [2] [%] | also measured |
| --- | --- | --- | --- | --- | --- | --- | --- | --- | --- | --- | --- | --- | --- | --- | --- | --- | --- | --- | --- | --- | --- |
| C=CC(=O)Nc1cc(Nc2nccc(-c3cn(C)c4cccnc34)n2)c(OC)cc1N(C)CCN(C)C [p-toluenesulfonate salt] | 0.04 | 0.04 | consistent | soluble | higher solubility in artificial gastric fluid than in water | 46.21 | 46.75 | 47.03 | 0.0068 < 1 | no significant degradation | slightly soluble | 0.2057 < 1 | 1.82 | 1.78 | 1.56 | – | – | – | – | – | Hygroscopicity as compared with that of the EGFR inhibitor present in a free base form ([1]; listed as p-toluenesulfonate salt crystal form B): lower hygroscopicity; Appearance, 1 month [2, 6]: light tan solid; Purity (%), 1 month [2, 6]: 98.7%; Appearance, 0 month [2, 6]: light tan solid; Purity (%), 0 month [2, 6]: 98.7% |
| C=CC(=O)Nc1cc(Nc2nccc(-c3cn(C)c4cccnc34)n2)c(OC)cc1N(C)CCN(C)C [phosphate salt (amorphous)] | 1.2 | 1.5 | consistent | freely soluble | higher solubility in artificial gastric fluid than in water | 123.56 | 136.76 | 138.91 | 0.0023 < 1 | no significant degradation | freely soluble | 0.0034 < 1 | 88.32 | 92.14 | 94.56 | slightly hygroscopic | light grey solid | 98.7 | light grey solid | 98.9 | Hygroscopicity as compared with that of the EGFR inhibitor present in a free base form ([1]; listed as amorphous phosphate salt): lower hygroscopicity; Solubility with reference to Pharmacopoeia solubility classification [5]: high |
| C=CC(=O)Nc1cc(Nc2nccc(-c3cn(C)c4cccnc34)n2)c(OC)cc1N(C)CCN(C)C [hydrochloride salt] | 0.72 | 1.29 | consistent | soluble | higher solubility in artificial gastric fluid than in water | 83.79 | 79.18 | 70.03 | 0.0046 < 1 | no significant degradation | sparingly soluble | 0.0302 < 1 | 13.43 | 11.09 | 10.59 | slightly hygroscopic | – | – | – | – | Hygroscopicity as compared with that of the EGFR inhibitor present in a free base form ([1]; listed as hydrochloride salt crystal form D): lower hygroscopicity; Appearance, 1 month [2, 7]: tan solid; Purity (%), 1 month [2, 7]: 99.3%; Appearance, 0 month [2, 7]: tan solid; Purity (%), 0 month [2, 7]: 99.2% |
| C=CC(=O)Nc1cc(Nc2nccc(-c3cn(C)c4cccnc34)n2)c(OC)cc1N(C)CCN(C)C [phosphate salt (crystal form C)] | 9.15 | 11.98 | consistent | freely soluble | higher solubility in artificial gastric fluid than in water | 156.70 | 159.14 | 147.08 | 0.0022 < 1 | no significant degradation | freely soluble | 0.0023 < 1 | 107.15 | 133.32 | 137.13 | hygroscopic | tan solid | 98.5 | tan solid | 98.5 | Hygroscopicity as compared with that of the EGFR inhibitor present in a free base form [1]: higher hygroscopicity; Solubility with reference to Pharmacopoeia solubility classification [5]: high |
| C=CC(=O)Nc1cc(Nc2nccc(-c3cn(C)c4cccnc34)n2)c(OC)cc1N(C)CCN(C)C [free base] | 1.7 | 2.2 | – | – | higher solubility in artificial gastric fluid than in water | 0.84 (≈ 1680 µM) | 0.86 (≈ 1720 µM) | 0.71 (≈ 1420 µM) | 0.4515 < 1 | no significant degradation | – | 606.30 > 1 | <0.025 | <0.025 | <0.025 | hygroscopic | – | – | – | – | – |
